Experimental data reported in ChEMBL document CHEMBL3137667, “[Drug-induced liver injury; fourteenth updated edition of the bibliographic database of liver injuries and related drugs]” (Gastroenterol Clin Biol, 2004).

Experiments:
[1] = Highest frequency of moderate liver toxicity observed during clinical trials, expressed as a percentage. [column '% BIOL' in source]; details: human
[2] = Highest frequency of acute liver toxicity observed during clinical trials, expressed as a percentage. [column '% AIGUE' in source]; details: human
[3] = human, serum
[4] = human, serum; remark: listed apart in the source
[5] = human
[6] = human; remark: listed apart in the source
[7] = human; remark: listed apart in the source
[8] = human, serum, 4383 h
[9] = human; remark: listed apart in the source
[10] = human; remark: listed apart in the source
[11] = human; remark: listed apart in the source
[12] = human; remark: listed apart in the source
[13] = human; remark: listed apart in the source
[14] = human; remark: listed apart in the source
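For Hepatotoxicity (association with vascular disease) in this document: count of indexed literature references reporting vascular liver injury in humans, e.g. peliosis hepatitis, hepatic veno-occlusive disease or Budd-Chiari syndrome.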
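For Hepatotoxicity (benign tumour) in this document: value is a count of indexed literature references citing a benign tumour confirmed by histopathology.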
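For Hepatotoxicity (choleostasis) in this document: human cholestatic liver injury, shown by histopathology or by peak ALT or AST elevation over alkaline phosphatase ratio below 2, value counts indexed literature reports.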
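For Hepatotoxicity (chronic liver disease) in this document: chronic liver injury confirmed by histopathology or persistently raised serum aminotransferase activity beyond 6 months, value given as the count of indexed literature references.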
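For Hepatotoxicity (cirrhosis) in this document: value is a count of indexed literature references reporting cirrhosis confirmed by histopathology.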
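For Hepatotoxicity (cytolytic) in this document: human cytolytic liver injury, shown by histopathology or by a ratio above 5 of peak ALT or AST elevation to alkaline phosphatase elevation, value counts indexed references.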
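For Hepatotoxicity (granulomatous hepatitis) in this document: value is a count of indexed literature references reporting granulomatous liver disease confirmed by histopathology.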
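For Hepatotoxicity (malignant tumour) in this document: malignant tumour confirmed by histopathology, value gives the count of indexed literature references reporting it.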
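For Hepatotoxicity (severe hepatitis) in this document: human clinical data: severe hepatitis, meaning potentially life-threatening liver failure or clinically observed cases, the value counts how many indexed literature references report it.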
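For Hepatotoxicity (steatosis) in this document: steatosis confirmed by histopathology, value is the count of indexed references.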

OCCN1CCN(CC/C=C2/c3ccccc3Sc3ccc(Cl)cc32)CC1 [ZUCLOPENTHIXOL]
Hepatotoxicity (moderate) [1]: 19% | Hepatotoxicity (acute) [2]: 0% | Hepatotoxicity (moderate) [3]: 1 | Hepatotoxicity (acute) [4]: 0 | Hepatotoxicity (cytolytic) [5]: 0 | Hepatotoxicity (choleostasis) [6]: 0 | Hepatotoxicity (severe hepatitis) [7]: 0 | Hepatotoxicity (chronic liver disease) [8]: 0 | Hepatotoxicity (cirrhosis) [9]: 0 | Hepatotoxicity (granulomatous hepatitis) [10]: 0 | Hepatotoxicity (association with vascular disease) [11]: 0 | Hepatotoxicity (steatosis) [12]: 0 | Hepatotoxicity (malignant tumour) [13]: 0 | Hepatotoxicity (benign tumour) [14]: 0

CO/N=C(\C(=O)N[C@@H]1C(=O)N2C(C(=O)[O-])=C(C[n+]3ccn4ncccc43)CS[C@H]12)c1nsc(N)n1 [CEFOZOPRAN]
Hepatotoxicity (moderate) [1]: 50% | Hepatotoxicity (acute) [2]: 0% | Hepatotoxicity (moderate) [3]: 68 | Hepatotoxicity (acute) [4]: 0 | Hepatotoxicity (cytolytic) [5]: 0 | Hepatotoxicity (choleostasis) [6]: 0 | Hepatotoxicity (severe hepatitis) [7]: 0 | Hepatotoxicity (chronic liver disease) [8]: 0 | Hepatotoxicity (cirrhosis) [9]: 0 | Hepatotoxicity (granulomatous hepatitis) [10]: 0 | Hepatotoxicity (association with vascular disease) [11]: 0 | Hepatotoxicity (steatosis) [12]: 0 | Hepatotoxicity (malignant tumour) [13]: 0 | Hepatotoxicity (benign tumour) [14]: 0

SODIUM NITROPRUSSIDE
Hepatotoxicity (moderate) [1]: 41% | Hepatotoxicity (acute) [2]: 0% | Hepatotoxicity (moderate) [3]: 1 | Hepatotoxicity (acute) [4]: 0 | Hepatotoxicity (cytolytic) [5]: 0 | Hepatotoxicity (choleostasis) [6]: 0 | Hepatotoxicity (severe hepatitis) [7]: 0 | Hepatotoxicity (chronic liver disease) [8]: 0 | Hepatotoxicity (cirrhosis) [9]: 0 | Hepatotoxicity (granulomatous hepatitis) [10]: 0 | Hepatotoxicity (association with vascular disease) [11]: 0 | Hepatotoxicity (steatosis) [12]: 0 | Hepatotoxicity (malignant tumour) [13]: 0 | Hepatotoxicity (benign tumour) [14]: 0

C[Si](C)(C)c1cccc(C(=O)C(F)(F)F)c1
Hepatotoxicity (moderate) [1]: 0% | Hepatotoxicity (acute) [2]: 0% | Hepatotoxicity (moderate) [3]: 2 | Hepatotoxicity (acute) [4]: 0 | Hepatotoxicity (cytolytic) [5]: 0 | Hepatotoxicity (choleostasis) [6]: 0 | Hepatotoxicity (severe hepatitis) [7]: 0 | Hepatotoxicity (chronic liver disease) [8]: 0 | Hepatotoxicity (cirrhosis) [9]: 0 | Hepatotoxicity (granulomatous hepatitis) [10]: 0 | Hepatotoxicity (association with vascular disease) [11]: 0 | Hepatotoxicity (steatosis) [12]: 0 | Hepatotoxicity (malignant tumour) [13]: 0 | Hepatotoxicity (benign tumour) [14]: 0

CN1CCN(C2=Nc3cc(F)ccc3Cc3ccccc32)CC1 [FLUPERLAPINE]
Hepatotoxicity (moderate) [1]: 23% | Hepatotoxicity (acute) [2]: 0% | Hepatotoxicity (moderate) [3]: 4 | Hepatotoxicity (acute) [4]: 0 | Hepatotoxicity (cytolytic) [5]: 0 | Hepatotoxicity (choleostasis) [6]: 0 | Hepatotoxicity (severe hepatitis) [7]: 0 | Hepatotoxicity (chronic liver disease) [8]: 0 | Hepatotoxicity (cirrhosis) [9]: 0 | Hepatotoxicity (granulomatous hepatitis) [10]: 0 | Hepatotoxicity (association with vascular disease) [11]: 0 | Hepatotoxicity (steatosis) [12]: 0 | Hepatotoxicity (malignant tumour) [13]: 0 | Hepatotoxicity (benign tumour) [14]: 0

CCCc1c2oc(C(=O)O)cc(=O)c2cc2c(=O)cc(C(=O)O)n(CC)c12 [NEDOCROMIL]
Hepatotoxicity (moderate) [1]: 3.3% | Hepatotoxicity (acute) [2]: 0% | Hepatotoxicity (moderate) [3]: 2 | Hepatotoxicity (acute) [4]: 0 | Hepatotoxicity (cytolytic) [5]: 0 | Hepatotoxicity (choleostasis) [6]: 0 | Hepatotoxicity (severe hepatitis) [7]: 0 | Hepatotoxicity (chronic liver disease) [8]: 0 | Hepatotoxicity (cirrhosis) [9]: 0 | Hepatotoxicity (granulomatous hepatitis) [10]: 0 | Hepatotoxicity (association with vascular disease) [11]: 0 | Hepatotoxicity (steatosis) [12]: 0 | Hepatotoxicity (malignant tumour) [13]: 0 | Hepatotoxicity (benign tumour) [14]: 0

CC/C(=C(/c1ccc(OCCN(C)C)cc1)c1cccc(O)c1)c1ccccc1 [DROLOXIFENE]
Hepatotoxicity (moderate) [1]: 6.6% | Hepatotoxicity (acute) [2]: 0% | Hepatotoxicity (moderate) [3]: 4 | Hepatotoxicity (acute) [4]: 0 | Hepatotoxicity (cytolytic) [5]: 0 | Hepatotoxicity (choleostasis) [6]: 0 | Hepatotoxicity (severe hepatitis) [7]: 0 | Hepatotoxicity (chronic liver disease) [8]: 0 | Hepatotoxicity (cirrhosis) [9]: 0 | Hepatotoxicity (granulomatous hepatitis) [10]: 0 | Hepatotoxicity (association with vascular disease) [11]: 0 | Hepatotoxicity (steatosis) [12]: 0 | Hepatotoxicity (malignant tumour) [13]: 0 | Hepatotoxicity (benign tumour) [14]: 0

O=c1n(CC2CO2)c(=O)n(CC2CO2)n1CC1CO1 (centres undefined) [ANAXIRONE]
Hepatotoxicity (moderate) [1]: 0% | Hepatotoxicity (acute) [2]: 0% | Hepatotoxicity (moderate) [3]: 1 | Hepatotoxicity (acute) [4]: 0 | Hepatotoxicity (cytolytic) [5]: 0 | Hepatotoxicity (choleostasis) [6]: 0 | Hepatotoxicity (severe hepatitis) [7]: 0 | Hepatotoxicity (chronic liver disease) [8]: 0 | Hepatotoxicity (cirrhosis) [9]: 0 | Hepatotoxicity (granulomatous hepatitis) [10]: 0 | Hepatotoxicity (association with vascular disease) [11]: 0 | Hepatotoxicity (steatosis) [12]: 0 | Hepatotoxicity (malignant tumour) [13]: 0 | Hepatotoxicity (benign tumour) [14]: 0

CO/N=C(\C(=O)N[C@@H]1C(=O)N2C(C(=O)O)=C(CSc3nc(C)c(CC(=O)O)s3)CS[C@H]12)c1csc(N)n1 [CEFODIZIME]
Hepatotoxicity (moderate) [1]: 44.4% | Hepatotoxicity (acute) [2]: 0% | Hepatotoxicity (moderate) [3]: 51 | Hepatotoxicity (acute) [4]: 0 | Hepatotoxicity (cytolytic) [5]: 0 | Hepatotoxicity (choleostasis) [6]: 0 | Hepatotoxicity (severe hepatitis) [7]: 0 | Hepatotoxicity (chronic liver disease) [8]: 0 | Hepatotoxicity (cirrhosis) [9]: 0 | Hepatotoxicity (granulomatous hepatitis) [10]: 0 | Hepatotoxicity (association with vascular disease) [11]: 0 | Hepatotoxicity (steatosis) [12]: 0 | Hepatotoxicity (malignant tumour) [13]: 0 | Hepatotoxicity (benign tumour) [14]: 0

O=C(O[C@@H]1C[C@@H]2C[C@H]3C[C@H](C1)N2CC3=O)c1c[nH]c2ccccc12 [DOLASETRON]
Hepatotoxicity (moderate) [1]: 6.7% | Hepatotoxicity (acute) [2]: 0% | Hepatotoxicity (moderate) [3]: 1 | Hepatotoxicity (acute) [4]: 0 | Hepatotoxicity (cytolytic) [5]: 0 | Hepatotoxicity (choleostasis) [6]: 0 | Hepatotoxicity (severe hepatitis) [7]: 0 | Hepatotoxicity (chronic liver disease) [8]: 0 | Hepatotoxicity (cirrhosis) [9]: 0 | Hepatotoxicity (granulomatous hepatitis) [10]: 0 | Hepatotoxicity (association with vascular disease) [11]: 0 | Hepatotoxicity (steatosis) [12]: 0 | Hepatotoxicity (malignant tumour) [13]: 0 | Hepatotoxicity (benign tumour) [14]: 0

CN(C)CCCN1c2ccccc2C(C)(C)c2ccccc21 [DIMETACRINE]
Hepatotoxicity (moderate) [1]: 0% | Hepatotoxicity (acute) [2]: 0% | Hepatotoxicity (moderate) [3]: 1 | Hepatotoxicity (acute) [4]: 0 | Hepatotoxicity (cytolytic) [5]: 0 | Hepatotoxicity (choleostasis) [6]: 0 | Hepatotoxicity (severe hepatitis) [7]: 0 | Hepatotoxicity (chronic liver disease) [8]: 0 | Hepatotoxicity (cirrhosis) [9]: 0 | Hepatotoxicity (granulomatous hepatitis) [10]: 0 | Hepatotoxicity (association with vascular disease) [11]: 0 | Hepatotoxicity (steatosis) [12]: 0 | Hepatotoxicity (malignant tumour) [13]: 0 | Hepatotoxicity (benign tumour) [14]: 0

CC(C)=CCC/C(C)=C/CC/C(C)=C/CCC(=O)OC/C=C(\C)CCC=C(C)C [GEFARNATE]
Hepatotoxicity (moderate) [1]: 1% | Hepatotoxicity (acute) [2]: 0% | Hepatotoxicity (moderate) [3]: 1 | Hepatotoxicity (acute) [4]: 0 | Hepatotoxicity (cytolytic) [5]: 0 | Hepatotoxicity (choleostasis) [6]: 0 | Hepatotoxicity (severe hepatitis) [7]: 0 | Hepatotoxicity (chronic liver disease) [8]: 0 | Hepatotoxicity (cirrhosis) [9]: 0 | Hepatotoxicity (granulomatous hepatitis) [10]: 0 | Hepatotoxicity (association with vascular disease) [11]: 0 | Hepatotoxicity (steatosis) [12]: 0 | Hepatotoxicity (malignant tumour) [13]: 0 | Hepatotoxicity (benign tumour) [14]: 0

COc1ccc(-c2noc(CC(=O)O)c2-c2ccc(OC)cc2)cc1 [MOFEZOLAC]
Hepatotoxicity (moderate) [1]: 0% | Hepatotoxicity (acute) [2]: 0% | Hepatotoxicity (moderate) [3]: 1 | Hepatotoxicity (acute) [4]: 0 | Hepatotoxicity (cytolytic) [5]: 0 | Hepatotoxicity (choleostasis) [6]: 0 | Hepatotoxicity (severe hepatitis) [7]: 0 | Hepatotoxicity (chronic liver disease) [8]: 0 | Hepatotoxicity (cirrhosis) [9]: 0 | Hepatotoxicity (granulomatous hepatitis) [10]: 0 | Hepatotoxicity (association with vascular disease) [11]: 0 | Hepatotoxicity (steatosis) [12]: 0 | Hepatotoxicity (malignant tumour) [13]: 0 | Hepatotoxicity (benign tumour) [14]: 0

Cc1ccc(Cl)c(Nc2ccccc2C(=O)O)c1Cl [MECLOFENAMIC ACID]
Hepatotoxicity (moderate) [1]: 0% | Hepatotoxicity (acute) [2]: 0% | Hepatotoxicity (moderate) [3]: 2 | Hepatotoxicity (acute) [4]: 0 | Hepatotoxicity (cytolytic) [5]: 0 | Hepatotoxicity (choleostasis) [6]: 0 | Hepatotoxicity (severe hepatitis) [7]: 0 | Hepatotoxicity (chronic liver disease) [8]: 0 | Hepatotoxicity (cirrhosis) [9]: 0 | Hepatotoxicity (granulomatous hepatitis) [10]: 0 | Hepatotoxicity (association with vascular disease) [11]: 0 | Hepatotoxicity (steatosis) [12]: 0 | Hepatotoxicity (malignant tumour) [13]: 0 | Hepatotoxicity (benign tumour) [14]: 0

CCOC(OCC)C(=O)OCC(=O)[C@]1(O)Cc2c(O)c3c(c(O)c2[C@@H](O[C@H]2C[C@H](N)[C@H](O)[C@H](C)O2)C1)C(=O)c1c(OC)cccc1C3=O [DETORUBICIN]
Hepatotoxicity (moderate) [1]: 9.4% | Hepatotoxicity (acute) [2]: 0% | Hepatotoxicity (moderate) [3]: 2 | Hepatotoxicity (acute) [4]: 0 | Hepatotoxicity (cytolytic) [5]: 0 | Hepatotoxicity (choleostasis) [6]: 0 | Hepatotoxicity (severe hepatitis) [7]: 0 | Hepatotoxicity (chronic liver disease) [8]: 0 | Hepatotoxicity (cirrhosis) [9]: 0 | Hepatotoxicity (granulomatous hepatitis) [10]: 0 | Hepatotoxicity (association with vascular disease) [11]: 0 | Hepatotoxicity (steatosis) [12]: 0 | Hepatotoxicity (malignant tumour) [13]: 0 | Hepatotoxicity (benign tumour) [14]: 0

NC1CCN(c2nc3c(cc2F)c(=O)c(C(=O)O)cn3-c2ccc(F)cc2F)C1 (centres undefined) [TOSUFLOXACIN]
Hepatotoxicity (moderate) [1]: 6.1% | Hepatotoxicity (acute) [2]: 0% | Hepatotoxicity (moderate) [3]: 3 | Hepatotoxicity (acute) [4]: 0 | Hepatotoxicity (cytolytic) [5]: 0 | Hepatotoxicity (choleostasis) [6]: 0 | Hepatotoxicity (severe hepatitis) [7]: 0 | Hepatotoxicity (chronic liver disease) [8]: 0 | Hepatotoxicity (cirrhosis) [9]: 0 | Hepatotoxicity (granulomatous hepatitis) [10]: 0 | Hepatotoxicity (association with vascular disease) [11]: 0 | Hepatotoxicity (steatosis) [12]: 0 | Hepatotoxicity (malignant tumour) [13]: 0 | Hepatotoxicity (benign tumour) [14]: 0
